Earlier results, collected in publication PMC12264960, “siRNA Interaction and Transfection Properties of Polycationic Phosphorus Dendrimers” (Biomacromolecules, 2025).

Legend:
[1] = test system: translation in the eukaryotic system; design: method as in earlier work; details: ref [4]
[2] = test system: translation in the prokaryotic system; design: method as in earlier work; details: ref [4]

## NC1C(OCOC2C(N)[C@H](O[C@H]3C(N)C[C@H](N)C(O)C3O)OC(CO)[C@@H]2O)[C@H](O)C(CO)O[C@@H]1O[C@@H]1C(N)C[C@@H](N)C(O)C1O (some centres unmarked) [NB33]
[1]
  fold better inhibitor of translation compared to apramycin: 10 fold
[2]
  times weaker inhibitor of translation compared to apramycin: 22 times
